Values of other authors as cited in patent US20220195167A1, “COMPOSITIONS COMPRISING STYRENATED BLOCK COPOLYMER, NON-POLAR OIL AND POLAR OIL” (L'OREAL, priority 2020, published 2022).

log P	SMILES
9.33	CCCCCCCC(=O)OCC(COC(=O)CCCCCCC)OC(=O)CCCCCCC [Tricaprylin]
10.25	CC(C)CCCCCCCCCCCCCCCOC(=O)C(C)(C)C [Isostearyl neopentanoate]
6.00	CC(C)CCCCCCCOC(=O)C(C)(C)C [Isodecyl neopentanoate]
8.49	CCCCCCCCCCCCCCCC(=O)OC(C)C [Isopropyl palmitate]
9.37	CC(C)CCCCCCCCCCCCCCC(=O)OC(C)C [Isopropyl isostearate]
